According to PubChem BioAssay AID328 (DTP/NCI, 2004):
Values joined by “and” are separate entries in the source; they are usually repeats but may differ in a detail not shown here. Equal entries are not always repeated. Inconclusive results and toxic doses are left out.

Test system: BDF1 mice, P388 leukemia ip, median survival T/C
Test: NCI In Vivo Anticancer Drug Screen. Data for tumor model P388 Leukemia (intraperitoneal) in B6D2F1 (BDF1) mice
Settings: endpoint: median survival time, higher = longer survival
Method in brief: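 Antitumour effect was judged in vivo: survival in drug-treated mice, normalised to that of vehicle-dosed controls, gives the reported T/C.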

[1] = dose: 6.25 mg/kg/injection, schedule: Q01DX009 (ip), vehicle: saline with Tween-80
[2] = dose: 12.5 mg/kg/injection, schedule: Q01DX009 (ip), vehicle: saline with Tween-80
[3] = dose: 20.0 mg/kg/injection, schedule: Q01DX009 (ip), vehicle: saline with Tween-80
[4] = dose: 25.0 mg/kg/injection, schedule: Q01DX009 (ip), vehicle: saline with Tween-80
[5] = dose: 100.0 mg/kg/injection, schedule: Q01DX009 (ip), vehicle: other
[6] = dose: 200.0 mg/kg/injection, schedule: Q01DX009 (ip), vehicle: other
[7] = dose: 400.0 mg/kg/injection, schedule: Q01DX009 (ip), vehicle: other
[8] = dose: 100.0 mg/kg/injection, schedule: Q01DX009 (ip), vehicle: saline with Tween-80
[9] = dose: 50.0 mg/kg/injection, schedule: Q01DX009 (ip), vehicle: saline with Tween-80
[10] = dose: 200.0 mg/kg/injection, schedule: Q01DX009 (ip), vehicle: saline with Tween-80

## Cn1nnc(N/N=C/c2ccccc2)n1
dose: 3.12 mg/kg/injection, schedule: Q01DX009 (ip), vehicle: saline with Tween-80
  T/C: 102 % of control
dose: 4.0 mg/kg/injection, schedule: Q01DX009 (ip), vehicle: saline with Tween-80
  T/C: 121 % of control
[1]
  T/C: 93 % of control
dose: 6.25 mg/kg/injection, schedule: Q04DX003 (ip), vehicle: saline with Tween-80
  T/C: 112 % of control
dose: 8.0 mg/kg/injection, schedule: Q01DX009 (ip), vehicle: saline with Tween-80
  T/C: 123 % of control
dose: 12.0 mg/kg/injection, schedule: Q01DX009 (ip), vehicle: saline with Tween-80
  T/C: 120 % of control
[2]
  T/C: 97 % of control and 107 % of control
dose: 12.5 mg/kg/injection, schedule: Q04DX003 (ip), vehicle: saline with Tween-80
  T/C: 105 % of control
dose: 16.0 mg/kg/injection, schedule: Q01DX009 (ip), vehicle: saline with Tween-80
  T/C: 98 % of control
[3]
  T/C: 114 % of control
[4]
  T/C: 100 % of control and 107 % of control
dose: 25.0 mg/kg/injection, schedule: Q04DX003 (ip), vehicle: saline with Tween-80
  T/C: 99 % of control and 100 % of control

## CCOc1ccc(/C=N/NS(=O)(=O)c2ccc(C)cc2)cc1
dose: 100.0 mg/kg/injection, schedule: Q04DX003 (ip), vehicle: Klucel (hydroxypropylcellulose) (HPC)
  T/C: 100 % of control
dose: 200.0 mg/kg/injection, schedule: Q01DX009 (ip), vehicle: Klucel (hydroxypropylcellulose) (HPC)
  T/C: 92 % of control
dose: 200.0 mg/kg/injection, schedule: Q04DX003 (ip), vehicle: Klucel (hydroxypropylcellulose) (HPC)
  T/C: 100 % of control
dose: 400.0 mg/kg/injection, schedule: Q04DX003 (ip), vehicle: Klucel (hydroxypropylcellulose) (HPC)
  T/C: 100 % of control

## CC(=O)CC(C)=O.CC(=O)CC(C)=O.O=N[O-].O=N[O-].[Co]
dose: 25.0 mg/kg/injection, schedule: Q04DX002 (ip), vehicle: saline with Tween-80
  T/C: 106 % of control
dose: 50.0 mg/kg/injection, schedule: Q04DX002 (ip), vehicle: saline with Tween-80
  T/C: 109 % of control

## CN1CCN(c2nn3nnnc3c3ccccc23)CC1
[3]
  T/C: 89 % of control
dose: 40.0 mg/kg/injection, schedule: Q01DX009 (ip), vehicle: saline with Tween-80
  T/C: 94 % of control
dose: 80.0 mg/kg/injection, schedule: Q01DX009 (ip), vehicle: saline with Tween-80
  T/C: 93 % of control

## CCOC(O)C(Cl)(Cl)Cl (stereo unspecified)
dose: 100.0 mg/kg/injection, schedule: Q01DX001 (ip), vehicle: saline with Tween-80
  T/C: 100 % of control
dose: 200.0 mg/kg/injection, schedule: Q01DX001 (ip), vehicle: saline with Tween-80
  T/C: 100 % of control
dose: 400.0 mg/kg/injection, schedule: Q01DX001 (ip), vehicle: saline with Tween-80
  T/C: 100 % of control

## CCN1c2ccccc2C(Cl)(c2ccc(N(C)C)cc2)c2ccccc21
dose: 3.75 mg/kg/injection, schedule: Q01DX009 (ip), vehicle: saline
  T/C: 118 % of control
dose: 6.25 mg/kg/injection, schedule: Q04DX003 (ip), vehicle: saline
  T/C: 100 % of control
dose: 7.5 mg/kg/injection, schedule: Q01DX009 (ip), vehicle: saline
  T/C: 118 % of control
dose: 12.5 mg/kg/injection, schedule: Q04DX003 (ip), vehicle: saline
  T/C: 116 % of control
dose: 25.0 mg/kg/injection, schedule: Q04DX003 (ip), vehicle: saline
  T/C: 116 % of control

## CC(=O)N(CCN(Cc1ccc(Oc2ccc([N+](=O)[O-])cc2[N+](=O)[O-])cc1)C(C)=O)CCN(Cc1ccc(Oc2ccc([N+](=O)[O-])cc2[N+](=O)[O-])cc1)C(C)=O
dose: 25.0 mg/kg/injection, schedule: Q01DX009 (ip), vehicle: other
  T/C: 94 % of control
dose: 50.0 mg/kg/injection, schedule: Q01DX009 (ip), vehicle: other
  T/C: 103 % of control
[5]
  T/C: 100 % of control
[6]
  T/C: 94 % of control
[7]
  T/C: 103 % of control

## CCCCCCCCCCCC[Si](CCCCCCCCCCCC)(c1ccccc1)c1ccccc1
[5]
  T/C: 95 % of control
dose: 100.0 mg/kg/injection, schedule: Q04DX003 (ip), vehicle: saline with Tween-80
  T/C: 100 % of control
[6]
  T/C: 114 % of control
dose: 200.0 mg/kg/injection, schedule: Q04DX003 (ip), vehicle: saline with Tween-80
  T/C: 100 % of control
[7]
  T/C: 109 % of control
dose: 400.0 mg/kg/injection, schedule: Q04DX003 (ip), vehicle: saline with Tween-80
  T/C: 100 % of control

## COP(=O)(OC)OC=C(Cl)Cl
[1]
  T/C: 100 % of control
[2]
  T/C: 103 % of control
[4]
  T/C: 102 % of control

## CC(=O)OC1CC2CC1C1C3C=CC(C3)C21 (stereo unspecified)
[8]
  T/C: 109 % of control

## CS(=O)(=O)/C=C(\c1ccccc1)c1cccs1
[9]
  T/C: 114 % of control
[8]
  T/C: 100 % of control
[10]
  T/C: 96 % of control

## CCOC(=O)C(OCc1ccccc1)(C(=O)Cl)C(C)C (stereo unspecified)
[9]
  T/C: 118 % of control

## O=C(Nc1cccc2cccnc12)C12CC3CC(CC(C3)C1)C2
[9]
  T/C: 96 % of control
[8]
  T/C: 96 % of control
[10]
  T/C: 100 % of control

## O=C(CCN1CC1)OCCOC(=O)CCN1CC1
dose: 1.5 mg/kg/injection, schedule: Q01DX009 (ip), vehicle: saline with Tween-80
  T/C: 112 % of control
dose: 16.0 mg/kg/injection, schedule: Q04DX003 (ip), vehicle: saline with Tween-80
  T/C: 150 % of control
dose: 21.0 mg/kg/injection, schedule: Q04DX003 (ip), vehicle: saline with Tween-80
  T/C: 163 % of control
dose: 33.0 mg/kg/injection, schedule: Q04DX003 (ip), vehicle: saline with Tween-80
  T/C: 163 % of control
dose: 50.0 mg/kg/injection, schedule: Q04DX003 (ip), vehicle: saline with Tween-80
  T/C: 195 % of control
dose: 75.0 mg/kg/injection, schedule: Q04DX003 (ip), vehicle: saline with Tween-80
  T/C: 181 % of control

## CC12CCC3C(CCC4=CC(O)CCC43C=O)C1(O)CCC2c1ccc(=O)oc1 (stereo unspecified)
dose: 0.11 mg/kg/injection, schedule: Q01DX009 (ip), vehicle: saline + alcohol
  T/C: 100 % of control
dose: 0.33 mg/kg/injection, schedule: Q01DX009 (ip), vehicle: saline + alcohol
  T/C: 95 % of control
dose: 1.0 mg/kg/injection, schedule: Q01DX009 (ip), vehicle: saline + alcohol
  T/C: 95 % of control
dose: 3.0 mg/kg/injection, schedule: Q01DX010 (ip), vehicle: carboxymethylcellulose (CMC)
  T/C: 95 % of control

## O=C(O)c1sccc1-c1cccc2ccccc12
dose: 50.0 mg/kg/injection, schedule: Q01DX001 (ip), vehicle: saline
  T/C: 104 % of control
dose: 100.0 mg/kg/injection, schedule: Q01DX001 (ip), vehicle: saline
  T/C: 100 % of control
dose: 200.0 mg/kg/injection, schedule: Q01DX001 (ip), vehicle: saline
  T/C: 95 % of control

## CC(C)(C)[Si](C)(C)OC(=O)NCCCl
dose: 100.0 mg/kg/injection, schedule: Q04DX002 (ip), vehicle: saline with Tween-80
  T/C: 100 % of control
dose: 200.0 mg/kg/injection, schedule: Q04DX002 (ip), vehicle: saline with Tween-80
  T/C: 109 % of control
dose: 400.0 mg/kg/injection, schedule: Q04DX002 (ip), vehicle: saline with Tween-80
  T/C: 118 % of control

## C=C[C@@](C)(O)CC/C=C(/C)CCC=C(C)C
[8]
  T/C: 109 % of control

## CCOC1=NCCCCC1
dose: 50.0 mg/kg/injection, schedule: Q01DX009 (ip), vehicle: saline
  T/C: 98 % of control
dose: 100.0 mg/kg/injection, schedule: Q01DX009 (ip), vehicle: saline
  T/C: 95 % of control
dose: 200.0 mg/kg/injection, schedule: Q01DX009 (ip), vehicle: saline
  T/C: 98 % of control
dose: 400.0 mg/kg/injection, schedule: Q01DX009 (ip), vehicle: saline
  T/C: 98 % of control

## [NH-]C(CCC(N)=O)C(=O)O.[NH-]C(CCC(N)=O)C(=O)O.[Pt+2] (stereo unspecified)
dose: 12.5 mg/kg/injection, schedule: Q01DX009 (ip), vehicle: distilled water + Tween-80
  T/C: 100 % of control
dose: 25.0 mg/kg/injection, schedule: Q01DX009 (ip), vehicle: distilled water + Tween-80
  T/C: 100 % of control
dose: 50.0 mg/kg/injection, schedule: Q01DX009 (ip), vehicle: distilled water + Tween-80
  T/C: 100 % of control
dose: 100.0 mg/kg/injection, schedule: Q01DX009 (ip), vehicle: distilled water + Tween-80
  T/C: 113 % of control
